Experimental data reported in the supplement of paper PMC13207355.

How the values were obtained:
Details in all cases: exposure time: 72 h
E57 [1] = patient-derived glioblastoma stem cells of mesenchymal subtype; experiment: surviving fraction (nuclei count normalised to DMSO); higher = more cells surviving (less toxic)
E28 [2] = patient-derived glioblastoma stem cells of classical subtype; experiment: as above
E31 [3] = patient-derived glioblastoma stem cells of proneural subtype; experiment: as above
FT3469 [4] = normal neural stem cell line; experiment: as above
E21 [5] = patient-derived glioblastoma stem cells of mesenchymal subtype; experiment: as above
E34 [6] = patient-derived glioblastoma stem cells of proneural subtype; experiment: as above
E13 [7] = patient-derived glioblastoma stem cells of classical subtype; experiment: as above
E57 [8] = experiment: phenotypic distance (Euclidean, principal components) from DMSO controls (arbitrary units); higher = stronger morphological change
E28 [9] = experiment: as above
E31 [10] = experiment: as above
FT3469 [11] = experiment: as above
E21 [12] = experiment: as above
E34 [13] = experiment: as above
E13 [14] = experiment: as above
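Wherever phenotypic distance (Euclidean, principal components) from DMSO controls is given: cell Painting imaging in 384-well plates, CellProfiler features reduced to at least 20 principal components, Euclidean distance versus same-plate DMSO vehicle wells (0.1% v/v), median over six images per well.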
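Wherever surviving fraction (nuclei count normalised to DMSO) is given: nuclei counted by high-content imaging of Hoechst-stained cells in laminin-coated 384-well plates, relative to 0.1% DMSO vehicle wells, with staurosporine as cell-death control.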

CC(C)C[C@H](NC(=O)CNC(=O)c1cc(Cl)ccc1Cl)B(O)O [Ixazomib]
Details | phenotypic distance | surviving fraction
E13 [7], 4.1 nM | – | 0.298
E13 [7], 12.3 nM | – | 0.0451
E13 [7], 37 nM | – | 0.0121
E13 [7], 111.1 nM | – | 0.013
E13 [7], 333.3 nM | – | 0.0174
E13 [7], 1000 nM | – | 0.0252
E13 [7], 3000 nM | – | 0.00174
E13 [14], 4.1 nM | 4.64 | –
E13 [14], 12.3 nM | 9.62 | –
E13 [14], 37 nM | 17.4 | –
E13 [14], 111.1 nM | 10.6 | –
E13 [14], 333.3 nM | 11.8 | –
E13 [14], 1000 nM | 8.11 | –
E13 [14], 3000 nM | 11.2 | –
E21 [5], 4.1 nM | – | 0.275
E21 [5], 12.3 nM | – | 0.0747
E21 [5], 37 nM | – | 0.0159
E21 [5], 111.1 nM | – | 0.0149
E21 [5], 333.3 nM | – | 0.0187
E21 [5], 1000 nM | – | 0.0308
E21 [5], 3000 nM | – | 0.00187
E21 [12], 4.1 nM | 6.82 | –
E21 [12], 12.3 nM | 7.74 | –
E21 [12], 37 nM | 11.3 | –
E21 [12], 111.1 nM | 9.17 | –
E21 [12], 333.3 nM | 11.6 | –
E21 [12], 1000 nM | 10.7 | –
E21 [12], 3000 nM | 14.7 | –
E28 [2], 4.1 nM | – | 0.582
E28 [2], 12.3 nM | – | 0.296
E28 [2], 37 nM | – | 0.14
E28 [2], 111.1 nM | – | 0.149
E28 [2], 333.3 nM | – | 0.0863
E28 [2], 1000 nM | – | 0.102
E28 [2], 3000 nM | – | 0.0701
E28 [9], 4.1 nM | 2.24 | –
E28 [9], 12.3 nM | 3.91 | –
E28 [9], 37 nM | 4.89 | –
E28 [9], 111.1 nM | 4.69 | –
E28 [9], 333.3 nM | 6.98 | –
E28 [9], 1000 nM | 6.52 | –
E28 [9], 3000 nM | 5.85 | –
E31 [3], 4.1 nM | – | 0.365
E31 [3], 12.3 nM | – | 0.223
E31 [3], 37 nM | – | 0.0335
E31 [3], 111.1 nM | – | 0.0134
E31 [3], 333.3 nM | – | 0.0218
E31 [3], 1000 nM | – | 0.0402
E31 [3], 3000 nM | – | 0.00669
E31 [10], 4.1 nM | 3.6 | –
E31 [10], 12.3 nM | 5.68 | –
E31 [10], 37 nM | 7.85 | –
E31 [10], 111.1 nM | 7.57 | –
E31 [10], 333.3 nM | 8.35 | –
E31 [10], 1000 nM | 9.03 | –
E31 [10], 3000 nM | 17.2 | –
E34 [6], 4.1 nM | – | 0.609
E34 [6], 12.3 nM | – | 0.423
E34 [6], 37 nM | – | 0.163
E34 [6], 111.1 nM | – | 0.126
E34 [6], 333.3 nM | – | 0.0695
E34 [6], 1000 nM | – | 0.0659
E34 [6], 3000 nM | – | 0.0494
E34 [13], 4.1 nM | 2.17 | –
E34 [13], 12.3 nM | 4.29 | –
E34 [13], 37 nM | 6.54 | –
E34 [13], 111.1 nM | 7.64 | –
E34 [13], 333.3 nM | 9.65 | –
E34 [13], 1000 nM | 10.2 | –
E34 [13], 3000 nM | 10.4 | –
E57 [1], 4.1 nM | – | 0.118
E57 [1], 12.3 nM | – | 0.0366
E57 [1], 37 nM | – | 0.00889
E57 [1], 111.1 nM | – | 0.00993
E57 [1], 333.3 nM | – | 0.00889
E57 [1], 1000 nM | – | 0.0105
E57 [1], 3000 nM | – | 0.00366
E57 [8], 4.1 nM | 8.41 | –
E57 [8], 12.3 nM | 11.9 | –
E57 [8], 37 nM | 11 | –
E57 [8], 111.1 nM | 10.2 | –
E57 [8], 333.3 nM | 10.1 | –
E57 [8], 1000 nM | 9.67 | –
E57 [8], 3000 nM | 7.76 | –
FT3469 [4], 4.1 nM | – | 0.583
FT3469 [4], 12.3 nM | – | 0.704
FT3469 [4], 37 nM | – | 0.371
FT3469 [4], 111.1 nM | – | 0.386
FT3469 [4], 333.3 nM | – | 0.297
FT3469 [4], 1000 nM | – | 0.239
FT3469 [4], 3000 nM | – | 0.103
FT3469 [11], 4.1 nM | 2.53 | –
FT3469 [11], 12.3 nM | 2.8 | –
FT3469 [11], 37 nM | 4.87 | –
FT3469 [11], 111.1 nM | 6.47 | –
FT3469 [11], 333.3 nM | 6.55 | –
FT3469 [11], 1000 nM | 7.04 | –
FT3469 [11], 3000 nM | 7.74 | –

C/C=C(\C)C(=O)N[C@@H](c1ccccc1)[C@@H](O)C(=O)O[C@H]1C[C@@]2(O)[C@@H](OC(=O)c3ccccc3)[C@@H]3[C@]4(OC(C)=O)CO[C@@H]4C[C@H](O)[C@@]3(C)C(=O)[C@H](OC(C)=O)C(=C1C)C2(C)C [Cephalomannine]
Details | phenotypic distance | surviving fraction
E13 [7], 4.11523 nM | – | 0.308
E13 [7], 12.34567901 nM | – | 0.245
E13 [7], 37.037 nM | – | 0.27
E13 [7], 111.1111111 nM | – | 0.137
E13 [7], 333.333 nM | – | 0.171
E13 [7], 1000 nM | – | 0.171
E13 [7], 3000 nM | – | 0.19
E13 [14], 4.11523 nM | 4.23 | –
E13 [14], 12.34567901 nM | 4.51 | –
E13 [14], 37.037 nM | 4.54 | –
E13 [14], 111.1111111 nM | 6.45 | –
E13 [14], 333.333 nM | 5.33 | –
E13 [14], 1000 nM | 5.74 | –
E13 [14], 3000 nM | 5.58 | –
E21 [5], 4.11523 nM | – | 0.335
E21 [5], 12.34567901 nM | – | 0.327
E21 [5], 37.037 nM | – | 0.209
E21 [5], 111.1111111 nM | – | 0.246
E21 [5], 333.333 nM | – | 0.213
E21 [5], 1000 nM | – | 0.214
E21 [5], 3000 nM | – | 0.198
E21 [12], 4.11523 nM | 4.99 | –
E21 [12], 12.34567901 nM | 5.05 | –
E21 [12], 37.037 nM | 5.62 | –
E21 [12], 111.1111111 nM | 6.2 | –
E21 [12], 333.333 nM | 5.44 | –
E21 [12], 1000 nM | 6.44 | –
E21 [12], 3000 nM | 7.14 | –
E28 [2], 4.11523 nM | – | 0.515
E28 [2], 12.34567901 nM | – | 0.557
E28 [2], 37.037 nM | – | 0.304
E28 [2], 111.1111111 nM | – | 0.357
E28 [2], 333.333 nM | – | 0.302
E28 [2], 1000 nM | – | 0.286
E28 [2], 3000 nM | – | 0.249
E28 [9], 4.11523 nM | 3.22 | –
E28 [9], 12.34567901 nM | 3.3 | –
E28 [9], 37.037 nM | 3.65 | –
E28 [9], 111.1111111 nM | 3.5 | –
E28 [9], 333.333 nM | 3.82 | –
E28 [9], 1000 nM | 3.7 | –
E28 [9], 3000 nM | 4.32 | –
E31 [3], 4.11523 nM | – | 0.23
E31 [3], 12.34567901 nM | – | 0.132
E31 [3], 37.037 nM | – | 0.12
E31 [3], 111.1111111 nM | – | 0.11
E31 [3], 333.333 nM | – | 0.0834
E31 [3], 1000 nM | – | 0.12
E31 [3], 3000 nM | – | 0.148
E31 [10], 4.11523 nM | 3.6 | –
E31 [10], 12.34567901 nM | 4.39 | –
E31 [10], 37.037 nM | 3.82 | –
E31 [10], 111.1111111 nM | 4.56 | –
E31 [10], 333.333 nM | 4.66 | –
E31 [10], 1000 nM | 3.37 | –
E31 [10], 3000 nM | 3.61 | –
E34 [6], 4.11523 nM | – | 0.497
E34 [6], 12.34567901 nM | – | 0.442
E34 [6], 37.037 nM | – | 0.356
E34 [6], 111.1111111 nM | – | 0.284
E34 [6], 333.333 nM | – | 0.293
E34 [6], 1000 nM | – | 0.356
E34 [6], 3000 nM | – | 0.382
E34 [13], 4.11523 nM | 3.55 | –
E34 [13], 12.34567901 nM | 3.84 | –
E34 [13], 37.037 nM | 3.81 | –
E34 [13], 111.1111111 nM | 3.17 | –
E34 [13], 333.333 nM | 3.79 | –
E34 [13], 1000 nM | 3.73 | –
E34 [13], 3000 nM | 3.93 | –
E57 [1], 4.11523 nM | – | 0.156
E57 [1], 12.34567901 nM | – | 0.125
E57 [1], 37.037 nM | – | 0.0853
E57 [1], 111.1111111 nM | – | 0.0579
E57 [1], 333.333 nM | – | 0.0628
E57 [1], 1000 nM | – | 0.0598
E57 [1], 3000 nM | – | 0.0598
E57 [8], 4.11523 nM | 5.45 | –
E57 [8], 12.34567901 nM | 5.1 | –
E57 [8], 37.037 nM | 5.59 | –
E57 [8], 111.1111111 nM | 5.43 | –
E57 [8], 333.333 nM | 5.14 | –
E57 [8], 1000 nM | 5.43 | –
E57 [8], 3000 nM | 5.27 | –
FT3469 [4], 4.11523 nM | – | 0.62
FT3469 [4], 12.34567901 nM | – | 0.646
FT3469 [4], 37.037 nM | – | 0.577
FT3469 [4], 111.1111111 nM | – | 0.441
FT3469 [4], 333.333 nM | – | 0.378
FT3469 [4], 1000 nM | – | 0.465
FT3469 [4], 3000 nM | – | 0.449
FT3469 [11], 4.11523 nM | 2.71 | –
FT3469 [11], 12.34567901 nM | 2.83 | –
FT3469 [11], 37.037 nM | 3.01 | –
FT3469 [11], 111.1111111 nM | 3.67 | –
FT3469 [11], 333.333 nM | 3.37 | –
FT3469 [11], 1000 nM | 3.99 | –
FT3469 [11], 3000 nM | 4.09 | –
